Columns and labels:
Format in all cases: in vivo
[1] = system: Black Bean Aphid [Aphis fabae (Scop.)]; test: Black bean aphid spray test on nasturtium (BBA), 48 hours; conditions: percent of test compound in sprayed solution
Protocol: (§1) The compounds in Tables 1 and 2 above were tested for insecticidal activity using the following testing procedures. LC50 values, based on the results of these tests and calculated according to dosage-mortality curves, are expressed in Table 3.
Black Bean Aphid [Aphis fabae (Scop.)]:
Nasturtium plants (Tropaeolum sp.) approximately 5 cm tall, were transplanted into sandy loam soil in small cups and infested with 25-50 black bean aphids of mixed ages. Twenty-four hours later they were sprayed to the point of runoff with 50-50 acetone-water solutions of the test compounds. Treated plants were held in the greenhouse and mortality was recorded after 48 hours. Test concentrations ranged from 0.05% downward. The LC-50 value is expressed below in Table 3 under the heading "BBA" in terms of percent of the test compound in the sprayed solution.

[2] = system: Housefly [Musca domestica]; test: Housefly contact mortality in dishes (HF), 48 hours; conditions: μg of test compound per 25 female flies
Protocol: as §1
Housefly [Musca domestica]:
Test compounds were diluted in acetone and aliquots pipetted onto the bottom of aluminum dishes. To ensure even spreading of the chemical on the bottom of the dishes, 1 ml of acetone containing 0.01% peanut oil was also added to each dish. After all solvents had evaporated, the dishes were placed in circular cardboard cages containing 25 female houseflies, 1-2 days old. The cages were covered on the bottom with cellophane and on the top with tulle netting, and each contained a sugar-water saturated cotton plug for maintenance of the flies. Mortality was recorded after 48 hours. Test levels ranged from 100 μg/25 female houseflies downward. The LC-50 value is expressed below in Table 3 under the heading "HF", in terms of μg of the test compound per 25 female flies.

[3] = system: Tobacco Budworm [Heliothis virescens (Fabricius)] eggs; test: Tobacco budworm eggs (TBW-E); conditions: percent in solution; 2-day old eggs
Protocol: as §1
Tobacco Budworm [Heliothis virescens (Fabricius)]:
(b). Eggs: Paper towel patches of 2-day old eggs of the tobacco budworm were dipped in acetone solutions of the test compound and placed in petri dishes containing a portion of larval rearing medium. Treated eggs were maintained at 78° F. and mortality was recorded after all control eggs had hatched and the young larvae were feeding on the media. Test concentrations ranged from 0.1% downward. The LC-50 value is expressed below in Table 3 under the heading "TBW-E" in terms of percent of the test compound in the solution.

[4] = system: Cabbage Looper [Trichoplusia ni (Hubner)]; test: Cabbage looper leaf dip (CL), 3-5 days; conditions: percent in solution, second-instar larvae
Protocol: as §1
Cabbage Looper [Trichoplusia ni (Hubner)]:
Test compounds were diluted in a 50-50 acetone-water solution. Cotyledons of hyzini squash (Calabacita abobrinha), approximately 1×1.5 inches, were immersed in the test solutions for 2-3 seconds and placed on a wire screen to dry. The dried leaves were placed in petri dishes containing a moistened piece of filter paper and infested with 5 second-instar cabbage looper larvae. The dishes were placed in a high humidity chamber. Mortality of the larvae was recorded 3-5 days later. Test concentrations ranged from 0.1% downward. The LC-50 value is expressed below in Table 3 under the heading "CL" in terms of percent of the test compound in solution.

Structure (SMILES)	LC50 BBA [1] [%]	LC50 HF [2] [µg]	LC50 TBW E (eggs) [3] [%]	LC50 CL [4] [%]
CC(C)(C)C(=Nc1cccc(Cl)c1)OCc1cccc(Oc2ccccc2)c1 [Compound 12]	> 0.05	> 100	> 0.1	0.008
CC1CC1C(=Nc1ccc(Cl)cc1)OCc1cccc(Oc2ccccc2)c1 (stereo not drawn) [Compound 15]	> 0.05	> 100	> 0.1	0.025
CC(C)C(=Nc1cc(Cl)c(Cl)cc1Cl)OCc1cccc(Oc2ccccc2)c1 [Compound 18]	0.003	> 100	0.09	0.008
CC(C)C(=Nc1c(Cl)cc(Cl)cc1Cl)OCc1cccc(Oc2ccccc2)c1 [Compound 19]	0.05	> 100	> 0.1	< 0.1
COC(C)C(=Nc1ccc(Cl)cc1)OCc1cccc(Oc2ccccc2)c1 (stereo not drawn) [Compound 22]	0.01	15	0.08	0.004
Clc1cccc(N=C(OCc2cccc(Oc3ccccc3)c2)C2CC2)c1 [Compound 24]	0.01	25	0.1	0.005
CC(C)(C)C(=Nc1ccc(F)cc1)OCc1cccc(Oc2ccccc2)c1 [Compound 48]	> 0.05	> 100	> 0.05	0.03
CC(C)C(=Nc1cc(F)ccc1F)OCc1cccc(Oc2ccccc2)c1 [Compound 56]	0.03	91	> 0.05	0.01
CC(C)C(=Nc1cc(F)c(F)cc1F)OCc1cccc(Oc2ccccc2)c1 [Compound 58]	0.003	16	0.06	0.002
COc1cc(N=C(OCc2cccc(Oc3ccccc3)c2)C(C)C)cc(C(F)(F)F)c1 [Compound 76]	0.003	20	0.05	0.002
CC(C)C(=Nc1cc(C(F)(F)F)cc(C(F)(F)F)c1)OCc1cccc(Oc2ccccc2)c1 [Compound 78]	0.03	> 100	> 0.1	0.0025
CC(C)C(=Nc1ccc(Br)cc1F)OCc1cccc(Oc2ccccc2)c1 [Compound 79]	0.03	6	0.05	0.003
CC(C)C(=Nc1cc(C(F)(F)F)ccc1F)OCc1cccc(Oc2ccccc2)c1 [Compound 84]	0.03	93	0.1	0.006
FC(F)(F)c1cccc(N=C(OCc2cccc(Oc3ccccc3)c2)C2CC2)c1 [Compound 86]	< 0.05	65		0.013
Cc1cc(N=C(OCc2cccc(Oc3ccccc3)c2)C(C)C)ccc1F [Compound 87]	0.001	5	0.03	0.004
Cc1ccc(Cl)c(N=C(OCc2cccc(Oc3ccccc3)c2)C(C)C)c1 [Compound 93]	0.003	64	> 0.1	0.005
Cc1ccc(N=C(OCc2cccc(Oc3ccccc3)c2)C(C)C)c(Cl)c1 [Compound 94]	0.001	44	0.075	0.0045
COc1cc(N=C(OCc2cccc(Oc3ccccc3)c2)C(C)C)c(OC)cc1Cl [Compound 99]	> 0.05	> 100	> 0.1	0.016
COc1ccc(OC)c(N=C(OCc2cccc(Oc3ccccc3)c2)C(C)C)c1Cl [Compound 100]	> 0.05	100	> 0.1	0.05
CCC(CC)C(=Nc1ccc(C(C)C)cc1)OCc1cccc(Oc2ccccc2)c1 [Compound 321]		> 100	> 0.1	0.05

Structure (SMILES)	LC50 BBA [1] [%]	LC50 HF [2] [µg]	LC50 TBW E (eggs) [3] [%]	LC50 CL [4] [%]
CC(C)c1ccc(N=C(OCc2cccc(Oc3ccc(F)cc3)c2)C(C)(C)C)cc1 [Compound 322]		> 100	> 0.1	0.007
FC(F)(F)c1ccc(Oc2ccc(COC(=Nc3ccc(Cl)cc3)C(Cl)Cl)cc2)nc1 [Compound 453]	> 0.05	> 100		0.1
CC(C)C(=Nc1ccc2c(c1)OCO2)OCc1c(F)c(F)c(F)c(F)c1F [Compound 464]		> 100	> 0.1	0.08
CC(C)C(=Nc1ccc2c(c1)OCO2)OCc1cccc(Oc2ccccc2)n1 [Compound 467]		6	0.04	0.003
CC(C)C(=Nc1ccc(F)c(Cl)c1)OCc1cccc(OCc2ccccc2)c1 [Compound 472]		> 100	> 0.1	0.0025
CC(C)C(=Nc1ccc(F)c(Cl)c1)OCc1ccc(F)c(Br)c1 [Compound 473]		> 100	> 0.1	0.025
CC(C)C(=Nc1ccc(F)c(Cl)c1)OCc1coc(Cc2ccccc2)c1 [Compound 474]		8	> 0.1	0.0012
CC(C)C(=Nc1cccc(C(F)(F)F)c1)OCc1ccc(OCc2ccccc2)cc1 [Compound 476]		> 100	> 0.1	0.015
C=CCOc1cccc(COC(=Nc2ccc(Cl)c(Cl)c2)C(C)C)c1 [Compound 481]		> 100	> 0.1	0.015
CC(C)C(=Nc1ccc(Cl)cc1)OCc1coc(Cc2ccccc2)c1 [Compound 484]		16	> 0.1	0.003
CC(C)C(=Nc1ccc(F)c(F)c1)OCc1coc(Cc2ccccc2)c1 [Compound 485]		24	> 0.1	> 0.1
CC(C)C(=Nc1ccc(F)c(Cl)c1)OCc1ccc(OCc2ccc(F)cc2)cc1 [Compound 487]		> 100	> 0.1	0.023
CC(C)C(=Nc1cccc(C(F)(F)F)c1)OCc1ccc(OCc2ccc(F)cc2)cc1 [Compound 488]		> 100	> 0.1	0.025
CC(C)C(=Nc1cccc(C(F)(F)F)c1)OCc1cccc(OCc2ccc(F)cc2)c1 [Compound 489]		> 100	> 0.1	< 0.1
CC(C)C(=Nc1ccc(F)cc1)OCc1coc(Cc2ccccc2)c1 [Compound 491]		9	0.08	0.0028
CC(C)C(=Nc1cccc(C(F)(F)F)c1)OCc1cccc(Oc2ccc(Br)cc2)n1 [Compound 493]		36	0.05	0.0008
Cc1ccc(Oc2cccc(COC(=Nc3ccc(F)c(Cl)c3)C(C)C)n2)cc1 [Compound 494]		34	> 0.1	0.003
Cc1ccc(Oc2cccc(COC(=Nc3cccc(C(F)(F)F)c3)C(C)C)n2)cc1 [Compound 495]		> 100	0.1	0.012
CC(C)C(=Nc1ccc(C(C)(C)C)cc1)OCc1cccc(Oc2ccccc2)n1 [Compound 496]		> 100	> 0.1	0.006
CC(C)C(=Nc1ccc(C(C)(C)C)cc1)OCc1cccc(Oc2ccc(Cl)cc2)n1 [Compound 497]		> 100	> 0.1	0.0075

From patent publication US5045566A, “Novel imidate insecticides” (ICI Americas Inc., priority 1989, dated 1991)
